Consider 1 substance from patent publication US8642516B2, “Chemically-defined arrays for screening cell-substrate interactions” (Wisconsin Alumni Research Foundation, priority 2012, dated 2014).

Common to all, as to assay type: cell-based, human
Assay [1] relates to HUVEC. Kind of assay: HUVEC migration (single cell tracking) on SAM array spots presenting GRGDSP. As to conditions: HUVECs. The protocol:
(§1) For cell assays on SAM arrays, HUVECs or hMSCs were removed from plastic culture plates using a 0.05% trypsin solution, resuspended in media, and seeded onto SAM arrays in sterile polystyrene Petri dishes. After allowing cells to attach for ˜1 hour in a humidified incubator at 37° C. and 5% CO2, arrays were dipped in warm media to remove loosely attached cells and then transferred to a rectangular multidish (Thermo Scientific/Nunc, Rochester, N.Y.) with warm media and imaged ˜4 hours later serving as “0 hr.” For the initial time point and subsequent time-lapse imaging, arrays were placed on an incubated stage and each array spot was imaged every 15 minutes for 72 hours. […]
(§2) Relative cell attachment at 0 hrs was quantified by counting the number of attached cells per spot and normalizing cell numbers to maximal attachment conditions. Normalized cell number was calculated by dividing the number of cells per spot at 72 hours (C72) to the cell number observed on the same spot at 0 hrs (C0). Relative proliferation was determined by dividing normalized cell numbers at 72 hours by the maximum average normalized cell number observed across GRGDSP density conditions. Similarly, relative spreading was determined by dividing projected cell areas to the maximum average projected cell area observed across GRGDSP density conditions. […]

For assay [2], the system named is hMSC. Kind of assay: hMSC migration (single cell tracking) on SAM array spots presenting GRGDSP. Conditions: hMSCs, each ligand density condition (0.06%-5%). The protocol:
as §1, §2

In assay [3] the test system is hMSC. Kind of assay: Alkaline phosphatase activity staining of hMSCs on SAM arrays. Conditions: high GRGDSP density SAM spots, 7 days. An excerpt:
In this SAM array approach, each spot was designed to contain the same total molar density (mol/cm^2) of peptide from spot to spot. Therefore, control over individual peptide density was achieved by mixing scrambled BR-BP and HPG-BP and mutant GRGESP (SEQ ID NO:19) peptides with functional BR-BP, HPG-BP or GRGDSP (SEQ ID NO:18) peptides, respectively. Therefore, in a typical SAM array, SAMs were locally formed within spots using an alkanethiolate mixture of 95% HS—C11-EG3-OH and 5% HS—C11-EG6-COOH to create substrates with a total of 5% carboxylate groups for peptide conjugation. Here, “X %” refers to the mole percent of alkanethiolate present during SAM formation and subsequently the approximate amount of an alkanethiolate present on the surface after SAM formation. To regulate the density of active peptide present in each spot, mutant and scramble versions of peptides were included during peptide conjugation. […] As mentioned previously, peptide concentrations were easily measured using UV/Vis since all peptides either contained residues that absorbed strongly at 280 nm, or were engineered to contain tryptophan residues in the poly-glycine tail. […]

Consider GRGDSP, for which the “fraction of migrating cells” value in assay [1] (high GRGDSP densities) is reported as “virtually no cells migrating”; in assay [1] (lower GRGDSP densities), “over 30%”; in assay [2], “greater than 37%”. In addition, in assay [3], the “staining for alkaline phosphatase activity” value is listed as “increased staining for alkaline phosphatase activity”.
